In patent US10000512B2, “Compounds for the treatment of infectious diseases” (Hoffmann-La Roche Inc., priority 2014, dated 2018):

Columns and labels:
[1] = target: T1, human TLR7 (Homo sapiens, UniProt Q9NYK1); test: HEK293-Blue-hTLR-7 cells assay (SEAP reporter); assay type: cell-based; conditions: 20 hours incubation
T1 sequence (Q9NYK1 27-1049): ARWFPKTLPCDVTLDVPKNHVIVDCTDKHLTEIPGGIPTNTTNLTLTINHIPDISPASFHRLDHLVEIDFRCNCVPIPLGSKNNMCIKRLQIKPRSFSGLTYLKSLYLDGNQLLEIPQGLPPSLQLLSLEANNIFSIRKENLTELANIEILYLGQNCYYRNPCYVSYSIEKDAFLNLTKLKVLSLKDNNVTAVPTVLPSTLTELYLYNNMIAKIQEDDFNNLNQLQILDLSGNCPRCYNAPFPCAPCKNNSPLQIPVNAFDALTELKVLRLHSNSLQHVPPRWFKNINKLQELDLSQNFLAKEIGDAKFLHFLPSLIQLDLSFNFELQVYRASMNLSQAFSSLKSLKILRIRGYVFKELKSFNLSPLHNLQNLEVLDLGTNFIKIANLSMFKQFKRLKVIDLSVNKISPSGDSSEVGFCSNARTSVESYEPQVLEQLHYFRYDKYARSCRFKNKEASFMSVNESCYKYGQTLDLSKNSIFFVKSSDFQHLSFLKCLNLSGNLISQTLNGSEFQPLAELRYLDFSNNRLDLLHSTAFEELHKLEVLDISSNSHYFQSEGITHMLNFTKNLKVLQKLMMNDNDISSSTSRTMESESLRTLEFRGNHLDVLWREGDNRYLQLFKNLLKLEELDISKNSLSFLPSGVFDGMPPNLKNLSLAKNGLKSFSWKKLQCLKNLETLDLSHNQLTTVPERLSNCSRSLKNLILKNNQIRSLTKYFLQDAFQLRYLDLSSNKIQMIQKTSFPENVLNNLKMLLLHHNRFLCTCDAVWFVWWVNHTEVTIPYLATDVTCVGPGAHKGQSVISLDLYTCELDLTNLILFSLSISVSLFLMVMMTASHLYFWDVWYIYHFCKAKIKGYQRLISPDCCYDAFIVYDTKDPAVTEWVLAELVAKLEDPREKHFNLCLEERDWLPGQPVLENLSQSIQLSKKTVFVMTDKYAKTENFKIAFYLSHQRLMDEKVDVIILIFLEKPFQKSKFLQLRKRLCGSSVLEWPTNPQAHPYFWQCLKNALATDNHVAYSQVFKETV
From the text: A stable HEK293-Blue-hTLR-7 cell line was purchased from InvivoGen (Cat.#: hkb-ht1r7, San Diego, Calif., USA). These cells were designed for studying the stimulation of human TLR7 by monitoring the activation of NF-κB. A SEAP (secreted embryonic alkaline phosphatase) reporter gene was placed under the control of the IFN-β minimal promoter fused to five NF-κB and AP-1-binding sites. The SEAP was induced by activating NF-κB and AP-1 via stimulating HEK-Blue hTLR7 cells with TLR7 ligands. Therefore the reporter expression was regulated by the NF-κB promoter upon stimulation of human TLR7 for 20 hours. The cell culture supernatant SEAP reporter activity was determined using QUANTI-Blue™ kit (Cat.#: rep-qb1, Invivogen, San Diego, Calif., USA) at a wavelength of 640 nm, a detection medium that turns purple/blue in the presence of alkaline phosphatase.
HEK293-Blue-hTLR7 cells were incubated at a density of 250,000˜450,000 cells/mL in a volume of 180 μL in a 96-well plate in Dulbecco's Modified Eagle's medium (DMEM) containing 4.5 g/L glucose, 50 U/mL penicillin, […] streptomycin, […] Normocin, 2 mM L-glutamine, 10% (v/v) heat-inactivated fetal bovine serum for 24 h. Then the HEK293-Blue-hTLR-7 cells were incubated with addition of 20 μL test compound in a serial dilution in the presence of final DMSO at 1% and perform incubation under 37° C. in a CO2 incubator for 20 hours. Then 20 μL of the supernatant from each well was incubated with 180 μL Quanti-blue substrate solution at 37° C. for 2 h and the absorbance was read at 620˜655 nm using a spectrophotometer. The signalling pathway that TLR7 activation leads to downstream NF-κB activation has been widely accepted, and therefore similar reporter assay was also widely used for evaluating TLR7 agonist (Tsuneyasu Kaisho and Takashi Tanaka, Trends in Immunology, Volume 29, Issue 7, July 2008, […]; Hiroaki Hemmi et al, Nature Immunology 3, 196-200 (2002).

[2] = test system: AAV-HBV; test: In vivo antiviral efficacy in AAV-HBV mouse model; design: species or system C57BL/6 mice; conditions: mouse serum
Description: Example 6-A was evaluated for its in vivo antiviral efficacy using an AAV-HBV mouse model. This mouse model for HBV infection was generated by injecting C57BL/6 mice with a recombinant adeno-associated virus (AAV) carrying a replicable HBV (hepatitis B virus) genome (AAV-HBV). In 3 weeks post infection, high levels of HBV viral markers, such as HBV genomic DNA and HBsAg (HBV surface antigen), was detected in the sera of infected mice. With persistent HBV viremia and fully competent immune system, the AAV-HBV model is suitable for investigating the in vivo efficacy of Example 6-A.
To establish the AAV-HBV model, a total of fifteen 4-week old male C57BL/6 mice, specific pathogen free, were purchased from Shanghai Laboratory Animal Center of Chinese Academy of Sciences (SLAC) and housed in an animal care facility in individually ventilated cages under controlled temperature and light conditions following the Institutional Animal Care guidelines. AAV-HBV virus stock was available from Beijing FivePlus Molecular Medicine Institute (Beijing, China). C57BL/6 mice were injected with 200 μL of recombinant virus in saline buffer through tail vein injection. The mice were bled on day 14 post injection to monitor HBsAg, HBeAg, and HBV genomic DNA in serum. On day 29 post injection, the fifteen mice were randomly recruited into 3 groups based on their HBV biomarker levels, and started to receive treatments, as shown in Table 3.
Mice in group 1 were treated with vehicle placebo (2% Klucel LF, 0.1% Polysorbate 80, and 0.1% Parabens in water); mice in group 2 and 3 were treated with Example 6-A at 30 mg/kg and 100 mg/kg respectively, every other day (QOD). All the mice were orally dosed for a total of 6 weeks. Serum samples were collected twice a week to monitor HBV biomarkers. Serum HBsAg was measured using CLIA kits (Autobio Diagnostics Co., Ltd, Zhengzhou, China) according to the manufacturer's instructions. The lower limit of detection for HBsAg was 0.1 ng/mL. Serum dilution of 500-fold (for HBsAg) was used to obtain values within the linear range of the standard curve. Serum HBV DNA was extracted using a MagNA Pure 96 DNA and Viral NA Small Volume Kit (Roche) following the manufacturer's instructions. The DNA samples were analyzed by real-time quantitative PCR (qPCR) using a HBV-specific primer and probe set for specific amplification and detection of a 128 bp HBV genome region from the nucleotide 2969 to 3096.

[3] = 30 mg/kg PO QOD, after the 6-week treatment
[4] = 100 mg/kg PO QOD, at the end of the treatment (6 weeks)

Work on `Nc1nc2c(sc(=O)n2[C@H]2CS[C@@H](C(O)C3CC3)O2)c(=O)[nH]1` (single isomer, unassigned) [Example 4-B] yielded an EC50 [1] of 306 µM.

`CC#CC(O)C1OC(n2c(=O)sc3c(=O)[nH]c(N)nc32)[C@H](C)S1` (single isomer, unassigned) [Example 24-A] showed an EC50 [1] of 10.1 µM.

In the case of `C#CC(O)[C@H]1O[C@@H](n2c(=O)sc3c(=O)[nH]c(N)nc32)CS1` (single isomer, unassigned) [Example 15-A], the EC50 [1] is reported as 16.7 µM.

`Nc1nc2c(sc(=O)n2C2CSC(CO)O2)c(=O)[nH]1` (stereo not shown) [Example 1, 5-Amino-3-[2-(hydroxymethyl)-1,3-oxathiolan-5-yl]-6H-thiazolo[4,5-d] pyrimidine-2,7-dione] was tested, and the EC50 [1] was 97 µM.

`C[C@@H]1S[C@@H](C(O)C2CC2)OC1n1c(=O)sc2c(=O)[nH]c(N)nc21` (single isomer, unassigned) [Example 23-B] gave an EC50 [1] of 31.5 µM.

`CC(=O)OC(C1CC1)[C@H]1O[C@@H](n2c(=O)sc3c(=O)[nH]c(N)nc32)CS1` (single isomer, unassigned) [Example 7-A] showed an EC50 [1] of 61.7 µM.

Compound `CCC(O)[C@H]1O[C@@H](n2c(=O)sc3c(=O)[nH]c(N)nc32)CS1` (single isomer, unassigned) [Example 8-A] has an EC50 [1] of 16.5 µM.

`C=CCC(O)[C@H]1O[C@@H](n2c(=O)sc3c(=O)[nH]c(N)nc32)CS1` (single isomer, unassigned) [Example 18-A] showed an EC50 [1] of 29 µM.

For `C[C@@H]1S[C@@H](C(O)C2CC2)OC1n1c(=O)sc2c(=O)[nH]c(N)nc21` (single isomer, unassigned) [Example 23-A], the EC50 [1] was 4.5 µM.

Compound `CCCCC(O)[C@H]1O[C@@H](n2c(=O)sc3c(=O)[nH]c(N)nc32)CS1` (single isomer, unassigned) [Example 19-A] has an EC50 [1] of 32.9 µM.

`CC#CC(OC(C)=O)[C@H]1O[C@@H](n2c(=O)sc3c(=O)[nH]c(N)nc32)CS1` (single isomer, unassigned) [Example 13-A] showed an EC50 [1] of 151 µM.

Compound `CCCC(O)[C@H]1O[C@@H](n2c(=O)sc3c(=O)[nH]c(N)nc32)CS1` (single isomer, unassigned) [Example 9-B] has an EC50 [1] of 160 µM.

For `Nc1nc2c(sc(=O)n2[C@H]2CS[C@@H](C(O)C#CC3CC3)O2)c(=O)[nH]1` (single isomer, unassigned) [Example 14-A], the EC50 [1] was 54.3 µM.

With `CC(O)[C@H]1O[C@@H](n2c(=O)sc3c(=O)[nH]c(N)nc32)CS1` (single isomer, unassigned) [Example 16-A] the EC50 [1] was 46.5 µM.

For `C[C@@H]1S[C@@H](CO)OC1n1c(=O)sc2c(=O)[nH]c(N)nc21` (single isomer, unassigned) [Example 21-A], the EC50 [1] was 53.9 µM.

`Nc1nc2c(sc(=O)n2[C@H]2CS[C@@H](CO)O2)c(=O)[nH]1` [Example 2-A, 5-amino-3-[(2S,5R)-2-(hydroxymethyl)-1,3-oxathiolan-5-yl]-6H-thiazolo[4,5-d]pyrimidine-2,7-dione] gave an EC50 [1] of 125 µM.

Compound `CC#CC(O)[C@H]1O[C@@H](n2c(=O)sc3c(=O)[nH]c(N)nc32)CS1` (single isomer, unassigned) [Example 10-B] has an EC50 [1] of 122 µM.

`C=CCC1SC(CO)OC1n1c(=O)sc2c(=O)[nH]c(N)nc21` (single isomer, unassigned) [Example 25-A, 3-[4-Allyl-2-(hydroxymethyl)-1,3-oxathiolan-5-yl]-5-amino-6H-thiazolo[4,5-d]pyrimidine-2,7-dione] showed an EC50 [1] of 178 µM.

`CC(=O)OC(C1CC1)[C@H]1O[C@@H](n2c(=O)sc3cnc(N)nc32)CS1` (single isomer, unassigned) [Example 6-A] was tested, and the “reduction in HBV DNA” value [2, 3] was “more than 2 log”, the “reduction in HBsAg” value [2, 3] was 0.8 log and the “reduction in HBV DNA” value [2, 4] was “more than 3 log”. The “reduction in HBsAg” value [2, 4] was 2.4 log.

In the case of `CC[C@H](O)C1OC(n2c(=O)sc3c(=O)[nH]c(N)nc32)[C@H](C)S1` (single isomer, unassigned) [Example 22-A], the EC50 [1] is reported as 4.7 µM.

With `Nc1nc2c(sc(=O)n2[C@H]2CS[C@@H](C(O)c3cccs3)O2)c(=O)[nH]1` (single isomer, unassigned) [Example 20-A] the EC50 [1] was 33.9 µM.

With `CC#CC(O)[C@H]1O[C@@H](n2c(=O)sc3c(=O)[nH]c(N)nc32)CS1` (single isomer, unassigned) [Example 10-A] the EC50 [1] was 7.6 µM.

`CCCC(O)[C@H]1O[C@@H](n2c(=O)sc3c(=O)[nH]c(N)nc32)CS1` (single isomer, unassigned) [Example 9-A] was tested, and the EC50 [1] was 10 µM.

`CC(C)CC(O)[C@H]1O[C@@H](n2c(=O)sc3c(=O)[nH]c(N)nc32)CS1` (single isomer, unassigned) [Example 17-B] was tested, and the EC50 [1] was 93.6 µM.

`CC(C)CC(O)[C@H]1O[C@@H](n2c(=O)sc3c(=O)[nH]c(N)nc32)CS1` (single isomer, unassigned) [Example 17-A] was tested, and the EC50 [1] was 63.3 µM.
